This passage reports IC50 and EC50 results from US10544133B2, “Heteroaryl substituted pyridyl compounds useful as kinase modulators” (BRISTOL-MYERS SQUIBB COMPANY, priority 2012, dated 2020).

pEC50, pIC50: −log10 of the molar value. Read-outs that look alike come from different tables or passages of the source.

The test system of this assay is TLR2 induced IL-6 in peripheral blood mononuclear cells (PBMCs). Kind of assay: PBMC TLR2 Induced IL-6 Assay. Type of assay: cell-based. Conditions: lipoteichoic acid 10 μg/ml 5 h, IL-6 by ELISA. As to the method: PBMC TLR2 Induced IL-6 Assay
Peripheral blood mononuclear cells (PBMCs) were isolated from human blood containing the anti-coagulant EDTA (2.5 mM) by centrifugation over a FICOLL® gradient. PBMCs (250000 cells/well) were cultured in assay media (RPMI with 10% heat inactivated FCS) with compounds for 30 minutes at 37° C. in a 5% CO2 incubator. Following pretreatment with compounds, cells were stimulated for 5 hours with 10 μg/ml lipoteichoic acid (Invivogen, San Diego, Calif.), a TLR2 agonist. At the end of the culture, plates were centrifuged at 1800 rpm for 10 minutes to pellet the cells. Supernatants were harvested and analyzed for IL-6 levels by ELISA (BD Biosciences, San Jose, Calif.).

[1] abbreviates: Homo sapiens, PBMC, 5 h, value marked * = EC50, read-out: Cell EC50 (*).

As for `CC(C)(O)[C@H](F)CNC(=O)c1cnc(Nc2ncc(C#N)cc2F)cc1NC1CCCOC1` (some centres unmarked) [Example 98], the negative logarithm of the IC50 (pIC50) (Homo sapiens, PBMC, 5 h, value without asterisk, read-out: Cell IC50) was 6.16. For `CC(C)(O)[C@H](F)CNC(=O)c1cnc(Nc2ncc(C#N)c(N)n2)cc1NC1CC1` [Example 154], the negative-log EC50 (pEC50) (human PBMCs, value marked * = EC50, read-out: Cell EC50 (*)) is 6.28. Take `CC(C)(O)[C@H](F)CNC(=O)c1cnc(Nc2ncc(C#N)cc2F)cc1NC1COC1` [Example 164]: the pEC50 under setting [1] was 6.76. Consider `Cc1cnc(Nc2cc(NC(C)C)c(C(=O)NC[C@@H](F)C(C)(C)O)cn2)c(F)c1` [Example 129], for which the pEC50 under setting [1] is 6.40. The same measure, in the same setting: the figure for `CC(C)Nc1cc(Nc2ncc(C#N)cc2Cl)ncc1C(=O)NC1CCC(C(C)(C)O)CC1` (centres unmarked) [Example 102] is 7.15.

For orientation: pIC50 means the negative decadic logarithm of the IC50, by convention in mol/L. Broadly, the pEC50 is the negative decadic logarithm of the EC50, by convention in mol/L.
